These are literature values, as cited in patent US20030153801A1, “Compositions of cyclooxygenase-2 selective inhibitors and radiation for inhibition or prevention of cardiovascular disease” (Pharmacia Corporation, priority 2001, published 2003).

The structures appear in SMILES notation.

One series concerns restenosis. The conditions noted are these: orally administered; stent implanted pig arteries.
Series [1] concerns vascular smooth muscle cells. Conditions: in vitro.
The conditions of series [2]: single dose pretreatment, intravenous, before coronary stenting.
Series [3] relates to coronary intimal proliferation. Conditions: oral administration; swine model of restenosis.

As to `COc1ccc(C=CC(=O)Nc2ccccc2C(=O)O)cc1OC` [tranilast, N-(3,4-dimethoxycinnamoyl) anthranilic acid], in the series on restenosis, the rate of restenosis entry is recorded as “lower”.
On to `COc1cc(/C=C/C(=O)CC(=O)/C=C/c2ccc(O)c(OC)c2)ccc1O` [curcumin], for which the “proliferation of vascular smooth muscle cells” value in series [1] is on record as “reduced”.
`C[C@H]1C[C@@H]2[C@H]([C@@H](O)C[C@@]3(C)[C@H]2CC[C@]3(O)C(=O)CO)[C@@]2(C)C=CC(=O)C=C12` [methylpridnisolone]: the “change in minimal lumen diameter at 6 months” value in series [2] was “no effect”.
For the compound `CN(C)CCCO[C@@H]1[C@H]2OC(C)(C)O[C@H]2O[C@@H]1[C@H](O)CO.Cl` [aniprilose hydrochloride], the coronary intimal proliferation result in series [3] is reported as “did not prevent”.
